Laboratory results as given in patent US6903132B2, “Non-peptide GnRH agents, pharmaceutical compositions and methods for their use” (Agouron Pharmaceuticals, Inc., priority 2002, dated 2005).
Where “and” joins values, the source holds several entries; their conditions need not be identical. Equal values may be shown once.

What was measured:
[1] = In vitro metabolism: disappearance of parent compound in liver microsomes (male rat); assay type: in vitro ADME; conditions: 5 uM compound, 0.5 mg/ml microsomal protein, 2 mM NADPH, 30 minutes at 37° C.
Description: (§1) Human, rat, dog, and monkey liver microsomes are isolated by differential centrifugation. Specimens of human liver were obtained from the International Institute for the Advancement of Medicine (Scranton, Pa.). The disappearance of the parent compound is studied in a mixture containing 5 uM compound, 0.5 mg/ml microsomal protein, and 2 mM NADPH in 50 mM K Phosphate buffer, pH 7.4. Samples are incubated for 30 minutes at 37° C. The reaction is terminated by the addition of acetonitrile and compounds analyzed by LC-MS as described above.

human GnRH receptors = target: T1, human GnRH receptors (Homo sapiens, UniProt P30968); assay: Radioligand binding assay: inhibition of binding of 125I-GnRH-A to GnRH receptors (membranes); conditions: Human GnRH receptor; competition with 125I-GnRH-A; Ki calculated from IC50 (Cheng et al.)
T1 construct: expressed in transfected cells; host or cells: HEK 293
T1 sequence (P30968 1-328): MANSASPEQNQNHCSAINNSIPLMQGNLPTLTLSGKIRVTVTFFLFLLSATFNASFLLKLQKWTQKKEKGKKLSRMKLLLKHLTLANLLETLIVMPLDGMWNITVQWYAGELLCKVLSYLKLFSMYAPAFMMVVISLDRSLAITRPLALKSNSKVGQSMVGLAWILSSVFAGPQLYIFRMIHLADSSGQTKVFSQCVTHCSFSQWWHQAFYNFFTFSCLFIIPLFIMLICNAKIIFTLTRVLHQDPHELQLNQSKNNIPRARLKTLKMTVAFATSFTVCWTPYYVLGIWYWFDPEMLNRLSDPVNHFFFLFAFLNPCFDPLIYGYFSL
Procedure, shortened: (§2)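 Membranes from HEK 293 expressing mouse or human receptor, or rat pituitaries, incubated 1 h at RT with ~0.04–0.06 nM ¹²⁵I-[des-Gly¹⁰,D-Ala⁶]GnRH ethylamide and competitor (0.1–10,000 nM) in HEPES pH 7.4 with MgCl2, EDTA, BSA. Filtration onto PEI-soaked GF/C filters, scintillation counting; Ki from IC50 by Cheng–Prusoff.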

rat GnRH receptor = target: T2, rat GnRH receptor (Rattus norvegicus, UniProt P30969); assay: as above; conditions: competition with 125I-GnRH-A, Ki calculated from IC50 (Cheng et al.)
T2 construct: rat pituitaries (Pel Freez Biologicals, Rogers, Ark.) are homogenized in buffer A; tissue Pel Freez Biologicals; host or cells: rat pituitaries
T2 sequence (P30969 1-327): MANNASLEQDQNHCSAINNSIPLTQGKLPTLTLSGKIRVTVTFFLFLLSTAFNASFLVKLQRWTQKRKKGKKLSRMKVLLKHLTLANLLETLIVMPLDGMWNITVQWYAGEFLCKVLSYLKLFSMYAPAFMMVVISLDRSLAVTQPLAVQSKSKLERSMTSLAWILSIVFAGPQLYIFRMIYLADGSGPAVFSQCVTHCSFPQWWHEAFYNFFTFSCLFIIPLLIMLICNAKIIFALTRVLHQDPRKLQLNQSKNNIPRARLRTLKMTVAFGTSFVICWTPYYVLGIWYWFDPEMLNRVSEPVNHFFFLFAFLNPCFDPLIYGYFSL
Procedure, shortened: as §2

[2] = In vitro metabolism: disappearance of parent compound in liver microsomes; assay type: in vitro ADME; conditions: human liver microsomes; 5 uM compound, 0.5 mg/ml microsomal protein, 2 mM NADPH, 30 minutes at 37° C.
Description: as §1

[3] = In vitro metabolism: disappearance of parent compound in liver microsomes (female rat); assay type: in vitro ADME; conditions: 5 uM compound, 0.5 mg/ml microsomal protein, 2 mM NADPH, 30 minutes at 37° C.
Description: as §1

Row | Compound | Male t % p. 30′ [1] [%] | Ki (human GnRH receptors) [nM] | Ki (rat GnRH receptor) [nM] | Huma % p. 30′ [2] | Fem. t % rem. 30′ [3] [%]
1 | Cc1cc2c(cc1Cc1ccc(C(=O)NNc3cc(C)c4c(C)nn(C)c4n3)o1)C(C)(C)CCC2(C)C [Example C1, 5-[(3,5,5,8,8-Pentamethyl-5,6,7,8-tetrahydro-2-naphthalenyl)methyl]-N′-(1,3,4-trimethyl-1H-pyrazolo[3,4-b]pyridin-6yl)-2-furohydrazide] | 99 | 3 | 6.5 | 63% and 54% and 37% and 38% | –
2 | COc1cc2c(cc1Cc1ccc(C(=O)NNc3cc(C)c4c(C)nn(C)c4n3)o1)C(C)(C)CCC2(C)C [Example C2, 5-[(3-Methoxy-5,5,8,8-tetramethyl-5,6,7,8-tetrahydro-2-naphthalenyl)methyl]-N′-(1,3,4-trimethyl-1H-pyrazolo[3,4-b]pyridin-6-yl)-2-furohydrazide] | 97 | 9.5 | 32 | 40% | 18
